Measurements taken from patent US8716475B2, “2-aminopyrimidine modulators of the histamine H4 receptor” (Janssen Pharmaceutica NV, priority 2007, dated 2014).

The compounds below were run against T1, human H4 receptor (Homo sapiens, UniProt Q9H3N8) (assay: Binding Assay on Recombinant Human Histamine H4 Receptor). Conditions: Table 1; [3H] histamine competition binding, membranes of SK-N-MC cells transfected with human H4 receptor; average of results.
T1 construct: expressed in transfected cells
Description: Binding Assay on Recombinant Human Histamine H4 Receptor.
Cell pellets from SK-N-MC cells stably or transiently transfected with human H4 receptor were used for the binding assays. Cell pellets were homogenized in 50 mM Tris/5 mM EDTA buffer and supernatants from an 800g spin were collected and recentrifuged at 30,000g for 30 min. Pellets were rehomogenized in 50 mM Tris/5 mM EDTA buffer. […] Compounds were tested in free base, hydrochloride salt, or trifluoroacetic acid form. Nonspecific binding was defined with 100 μM cold histamine. […] Membranes were harvested by rapid filtration using the 96 well Brandel system or a cell harvester using a Whatman GF/C filter or filter plates treated with 0.5% polyethylenimine (PEI), and washed 4 times with ice-cold 50 mM Tris/5 mM EDTA buffer. Filters were then dried, mixed with scintillant and radioactive counts were determined. […] Data marked with an asterisk (*) were obtained by the cell harvester method. Where activity is shown as greater than (>) a particular value, the value is the highest concentration tested.

SMILES | Ki [nM]
Nc1nc2c(c(N3C[C@@H]4C[C@H]3CN4)n1)CCCC2 [Example 73, (S,S)-4-(2,5-Diaza-bicyclo[2.2.1]hept-2-yl)-5,6,7,8-tetrahydro-quinazolin-2-ylamine] | > 10000
CC(C)c1cc(N2C[C@H]3C[C@@H]2CN3)nc(N)n1 [Example 15, (R,R)-4-(2,5-Diaza-bicyclo[2.2.1]hept-2-yl)-6-isopropyl-pyrimidin-2-ylamine] | 692
CC(C)c1cc(N2CCNCC2)nc(N)n1 [Example 8, 4-Isopropyl-6-piperazin-1-yl-pyrimidin-2-ylamine] | 3
CCc1cc(N2CCN(C)CC2)nc(N)n1 [Example 34, 4-Ethyl-6-(4-methyl-piperazin-1-yl)-pyrimidin-2-ylamine] | 6
CN1CCN(c2cc(C3CCCCC3)nc(N)n2)CC1 [Example 52, 4-Cyclohexyl-6-(4-methyl-piperazin-1-yl)-pyrimidin-2-ylamine] | 3
Nc1nc2c(c(N3C[C@H]4CCCN[C@H]4C3)n1)CCCC2 [Example 72, (R,R)-4-(Octahydro-pyrrolo[3,4-b]pyridin-6-yl)-5,6,7,8-tetrahydro-quinazolin-2-ylamine] | 14
CN1CCN(c2nc(N)nc3c2CCCC3)CC1 [Example 66, 4-(4-Methyl-piperazin-1-yl)-5,6,7,8-tetrahydro-quinazolin-2-ylamine] | 4
Nc1nc(C2CCCC2)cc(N2CC3CCCNC3C2)n1 (stereo not drawn) [Example 7, 4-Cyclopentyl-6-(cis-octahydro-pyrrolo[3,4-b]pyridin-6-yl)-pyrimidin-2-ylamine] | 2
CNC1CN(c2cc(C3CCCC3)nc(N)n2)CC1O (stereo not drawn) [Example 5, trans-1-(2-Amino-6-cyclopentyl-pyrimidin-4-yl)-4-methylamino-pyrrolidin-3-ol] | 30
Nc1nc2c(c(N3CC4CCCNC4C3)n1)CCCC2 (stereo not drawn) [Example 71, 4-(cis-Octahydro-pyrrolo[3,4-b]pyridin-6-yl)-5,6,7,8-tetrahydro-quinazolin-2-ylamine] | 5
Nc1nc(C2CCC2)cc(N2CC3CCCNC3C2)n1 (stereo not drawn) [Example 50, 4-Cyclobutyl-6-(cis-octahydro-pyrrolo[3,4-b]pyridin-6-yl)-pyrimidin-2-ylamine] | 3
Nc1nc(C2CCC2)cc(N2C[C@H]3CCCN[C@H]3C2)n1 [Example 51, (R,R)-(4-Cyclobutyl-6-cis-octahydro-pyrrolo[3,4-b]pyridin-6-yl)-pyrimidin-2-ylamine] | 3
Nc1nc(C2CCOCC2)cc(N2C[C@H]3CCCN[C@H]3C2)n1 [Example 61, (R,R)-4-(Octahydro-pyrrolo[3,4-b]pyridin-6-yl)-6-(tetrahydro-pyran-4-yl)-pyrimidin-2-ylamine] | 24
Nc1nc(C2CCC2)cc(N2C[C@H]3CNC[C@H]3C2)n1 [Example 48, 4-Cyclobutyl-6-(cis-hexahydro-pyrrolo[3,4-c]pyrrol-2-yl)-pyrimidin-2-ylamine] | 328
Nc1nc(C2CCCCC2)cc(N2CC3CCNC3C2)n1 (stereo not drawn) [Example 54, 4-Cyclohexyl-6-(cis-hexahydro-pyrrolo[3,4-b]pyrrol-5-yl)-pyrimidin-2-ylamine] | 2
Cc1nc(N)nc(N2CCN(C)CC2)c1C [Example 26, 4,5-Dimethyl-6-(4-methyl-piperazin-1-yl)-pyrimidin-2-ylamine] | 177

Same assay, conditions: Table 2, data marked with an asterisk (*): obtained by the cell harvester method; [3H] histamine competition binding, SK-N-MC membranes

SMILES | Ki [nM]
CC(C)(C)c1cc(N2CC(N)C2)nc(N)n1 [Example 133, 4-(3-Amino-azetidin-1-yl)-6-tert-butyl-pyrimidin-2-ylamine] | 238
CC(C)c1cc(N2CCN(C)CC2)nc(N)n1 [Example 95, 4-Isopropyl-6-(4-methyl-piperazin-1-yl)-pyrimidin-2-ylamine] | 8

Same assay, conditions: Table 2; [3H] histamine competition binding, membranes of SK-N-MC cells transfected with human H4 receptor; average of results

Ki [nM] | SMILES
49 | CN1CCN(c2cc(C3(C)CCOCC3)nc(N)n2)CC1 [Example 154, 4-(4-Methyl-piperazin-1-yl)-6-(4-methyl-tetrahydro-pyran-4-yl)-pyrimidin-2-ylamine]
12 | CN[C@@H]1CCN(c2cc(C3CCOC3)nc(N)n2)C1 (stereo partly drawn) [Example 191, (R)-4-(3-Methylamino-pyrrolidin-1-yl)-6-(tetrahydro-furan-3-yl)-pyrimidin-2-ylamine]
19 | CN[C@@H]1CCN(c2cc(Cc3cccs3)nc(N)n2)C1 [Example 214, (R)-4-(3-Methylamino-pyrrolidin-1-yl)-6-thiophen-2-ylmethyl-pyrimidin-2-ylamine]
9 | Nc1nc(CCc2ccccc2)cc(N2CC(N)C2)n1 [Example 248, 4-(3-Amino-azetidin-1-yl)-6-phenethyl-pyrimidin-2-ylamine]
2450 | CNCCNc1cc(C2CCOC2)nc(N)n1 (stereo not drawn) [Example 198, N^4-(2-Methylamino-ethyl)-6-(tetrahydro-furan-3-yl)-pyrimidine-2,4-diamine]
29 | Nc1nc(C2CC2c2ccccc2)cc(N2CC[C@@H](N)C2)n1 (stereo in doubt) [Example 157, (R)-4-(3-Amino-pyrrolidin-1-yl)-6-(trans-2-phenyl-cyclopropyl)-pyrimidin-2-ylamine]
44 | CCCCc1cc(N(C)CCN)nc(N)n1 [Example 138, N^4-(2-Amino-ethyl)-6-butyl-N^4-methyl-pyrimidine-2,4-diamine]
> 10000 | Nc1nc2c(c(N3CC(N)C3)n1)COCC2 [Example 252, 4-(3-Amino-azetidin-1-yl)-7,8-dihydro-5H-pyrano[4,3-d]pyrimidin-2-ylamine]
300 | COc1c(C2CCCC2)nc(N)nc1N1CCN(C)CC1 [Example 185, 4-Cyclopentyl-5-methoxy-6-(4-methyl-piperazin-1-yl)-pyrimidin-2-ylamine]
32 | Nc1nc(Cc2cccs2)cc(N2CC[C@@H](N)C2)n1 [Example 216, (R)-4-(3-Amino-pyrrolidin-1-yl)-6-thiophen-2-ylmethyl-pyrimidin-2-ylamine]
12 | Nc1nc(C2CC2c2ccccc2)cc(N2CCNCC2)n1 (stereo not drawn) [Example 156, 4-(trans-2-Phenyl-cyclopropyl)-6-piperazin-1-yl-pyrimidin-2-ylamine]
140 | Nc1nc(Cc2ccc(Cl)cc2)cc(N2CC[C@@H](N)C2)n1 [Example 235, (R)-4-(3-Amino-pyrrolidin-1-yl)-6-(4-chloro-benzyl)-pyrimidin-2-ylamine]
49 | Nc1nc(C2CCOC2)cc(N2CCNCC2)n1 (single isomer, unassigned; (+)) [Example 194, (+)-4-piperazin-1-yl-6-(tetrahydro-furan-3-yl)-pyrimidin-2-ylamine]
18 | CN[C@@H]1CCN(c2cc(Cc3ccc(Cl)cc3)nc(N)n2)C1 [Example 234, (R)-4-(4-Chloro-benzyl)-6-(3-methylamino-pyrrolidin-1-yl)-pyrimidin-2-ylamine]
3 | CC(C)Cc1cc(N2CC[C@@H](N)C2)nc(N)n1 [Example 149, (R)-4-(3-Amino-pyrrolidin-1-yl)-6-isobutyl-pyrimidin-2-ylamine]
52 | Nc1nc(Cc2ccccc2)cc(N2CC(N)C2)n1 [Example 166, 4-(3-Amino-azetidin-1-yl)-6-benzyl-pyrimidin-2-ylamine]
85 | Nc1nc(C2CCOCC2)cc(N2CC[C@@H](N)C2)n1 [Example 175, (R)-4-(3-Amino-pyrrolidin-1-yl)-6-(tetrahydro-pyran-4-yl)-pyrimidin-2-ylamine]
5 | CN[C@@H]1CCN(c2cc(C3CC3c3ccccc3)nc(N)n2)C1 (single isomer, unassigned) [Example 256]
8 | CN1CCN(c2cc(Cc3ccc(Cl)cc3)nc(N)n2)CC1 [Example 232, 4-(4-Chloro-benzyl)-6-(4-methyl-piperazin-1-yl)-pyrimidin-2-ylamine]
8 | CN1CCN(c2cc(CCC(F)(F)F)nc(N)n2)CC1 [Example 181, 4-(4-Methyl-piperazin-1-yl)-6-(3,3,3-trifluoro-propyl)-pyrimidin-2-ylamine]

Further lines, the compound ahead of its results:

SMILES | Ki [nM]
CC(C)Cc1cc(N2CCN(C)CC2)nc(N)n1 [Example 146, 4-Isobutyl-6-(4-methyl-piperazin-1-yl)-pyrimidin-2-ylamine] | 3
Nc1nc(C2CCCC2)cc(N2CC3NCCOC3C2)n1 (single isomer, unassigned) [Example 86, 4-Cyclopentyl-6-(trans-hexahydro-pyrrolo[3,4-b][1,4]oxazin-6-yl)-pyrimidin-2-ylamine] | 56
Nc1nc(C2CCCC2)cc(N2CC3NCCOC3C2)n1 (single isomer, unassigned) [Example 88, 4-Cyclopentyl-6-(cis-hexahydro-pyrrolo[3,4-b][1,4]oxazin-6-yl)-pyrimidin-2-ylamine] | 520
CN1C[C@@H]2CN(c3cc(C4CCCC4)nc(N)n3)C[C@@H]2C1 [Example 82, 4-Cyclopentyl-6-(cis-5-methyl-hexahydro-pyrrolo[3,4-c]pyrrol-2-yl)-pyrimidin-2-ylamine] | 25
Nc1nc(C2CCCC2)cc(N2CC3CNCC3C2)n1 (stereo not drawn) [Example 87, 4-Cyclopentyl-6-(hexahydro-pyrrolo[3,4-c]pyrrol-2-yl)-pyrimidin-2-ylamine] | 328
CCCc1cc(N2CCN(C)CC2)nc(N)n1 [Example 144, 4-(4-Methyl-piperazin-1-yl)-6-propyl-pyrimidin-2-ylamine] | 6
Nc1nc(C2CC2)cc(N2C[C@H]3CNC[C@H]3C2)n1 [Example 124, 4-Cyclopropyl-6-(cis-hexahydro-pyrrolo[3,4-c]pyrrol-2-yl)-pyrimidin-2-ylamine] | > 10000
